Results from patent US6506799B1, “Methods of treating cardiovascular diseases, dyslipidemia, dyslipoproteinemia, and hypertension with ether compounds” (Esperion Therapeutics, Inc., priority 1999, dated 2003).

Assays:
[1] = system: chow fed male Sprague-Dawley rats; test: Serum lipids, apolipoproteins and weight gain in chow fed male Sprague-Dawley rats after seven days of treatment; type: in vivo, rat; conditions: 100 mg/kg/day oral gavage, 7 days; normalized against vehicle control
Method: Illustrative compounds of the invention were administered daily at a dose of 100 mg/kg to chow fed male Sprague-Dawley rats for seven days in the morning by oral gavage in 1.5% carboxymethylcellulose/0.2% Tween-20 (dosing vehicle). Animals were weighed daily. Animals were allowed free access to rodent chow and water throughout the study. After the seventh dose, animals were sacrificed in the evening and blood serum was assayed for lipoprotein cholesterol profiles, serum triglycerides, total cholesterol VLDL, LDL, and HDL cholesterol, and the ratio of HDL cholesterol to that of VLDL plus LDL cholesterol, apolipoproteins A-I, C-II, C-III, and E by immunoelectrophoresis, and percent weight gain.
The five compounds were tested in two separate experiments. In each experiment, the experimental data were normalized against a control group of rats which received the dosing vehicle alone.

[2] = system: chow fed obese female Zucker rats; test: Experiments B, C, D, E: serum lipids, glucose, insulin, body and liver weight in obese female Zucker rats, 14 days; type: in vivo, rat; conditions: for Body Weight Gain (% of Pretreatment) / HDL-Cholesterol (% of Pretreatment) / Non HDL-Cholesterol (% of Pretreatment) / Triglycerides (% of Pretreatment): 14 days
Method: In a number of different experiments, illustrative compounds of the invention and troglitazone were administered daily at various doses to 10-week old chow fed obese female Zucker rats for 14 days in the morning by oral gavage in 1.5% carboxymethylcellulose/0.2% Tween-20 (dosing vehicle). Animals were weighed daily. Animals were allowed free access to rodent chow and water throughout the study. Blood glucose was determined after a 6-hour fast in the afternoon without anesthesia from a tail vein. Serum was also prepared from a blood sample subsequently obtained from the orbital venous plexus (with O2/CO2 anesthesia) prior to and after one week treatment and used lipid and insulin determinations. At two weeks, blood glucose was again determined after a 6-hour fast without anesthesia from a tail vein. Soon thereafter, animals were sacrificed by CO2 inhalation in the evening and cardiac blood serum was collected and assessed for various lipids and insulin. Body weight was determined daily prior to dosing and at the time of euthanasia.

primary rat hepatocytes = test: Synthesis of non-saponified and saponified lipids (14C-acetate incorporation) in hepatocytes; type: cell-based; conditions: 100 μM; 14C-acetate 2 hr; vs no compound control
Method: A male Sprague-Dawley rat was anesthetized by administration of sodium pentobarbitol by intraparitoneal injection at 50 mg/kg. In situ perfusion of the liver was performed as follows. […] To digest the liver, DSC solution (6.7 mM KCl, 143 mM NaCl, 9.2 mM Na HEPES, 5 mM CaCl2-2H2O, 1.7 mM Fructose, 0.029 mM Phenol red, 0.2% BSA, 100 U/ml collagenase Type I, 93 U/ml Hyaluronidase, 160 BAEE/ml trypsin inhibitor, pH 7.5) was perfused through the liver at a flow rate of 30 ml/min for 6 minutes at a temperature of 37° C. After digestion, cells were dispersed in a solution of DMEM-(DMEM containing 2 mM GlutMax-1, 0.2% BSA, 5% FBS, 12 nM insulin, 1.2 μM hydrocortisone) to stop the digestion process. The crude cell suspension was filtered through three layers of stainless steel mesh with pore sizes of 250, 106, and 75 μm respectively. Filtered cells were centrifuged at 50×g for two minutes and the supernatant discarded. The resulting cell pellet was resuspended in DMEM and centrifuged again. This final cell pellet was resuspended in DMEM+HS solution (DMEM containing 2 mM GlutMax-1, 20 nM delta-aminolevulinic acid, 17.4 mM MEM non-essential amino acids, 20% FBS, 12 nM insulin, 1.2 µM hydrocortisone) and plated to form monolayer cultures at a density of 100×10^3 cells/cm^2 on collagen coated culture dishes. Four hours after initial plating, media was changed to DMEM+(DMEM containing 2 mM GlutMax-1, 20 nM delta-aminolevulinic acid, 17.4 mM MEM non-essential amino acids, 10% FBS, 12 nM insulin, 1.2 μM hydrocortisone) and remained on cells overnight.
To test the effect of illustrative compounds of the invention on synthesis rates of non-saponified and saponified lipids, the monolayer cultures were exposed to 1 μM of lovastatin or 100 μM Compound A, B, D, E or F in DMEM+ containing 1 μCi/ml ^14C-acetate. Control cells were exposed to the same media lacking lovastatin or the test compounds. All cells were exposed to 0.1% DMSO. Metabolic labeling with ^14C-acetate continued for 2 hr at 37° C. After labeling, cells were washed twice with 1 ml of PBS followed by lysing in 1 ml of deionized water. Cells were scraped from the dishes, transferred to glass tubes and sonicated. 2.5 ml of 2:1 chloroform/methanol mixture was added followed by 1.5 ml of Phosphate Buffered Saline (PBS). To correct for extraction efficiency in the upcoming extractions, 3000 dpm of ^3H-cholesterol was added to each tube. Tubes were shaken for 30 min. to extract lipids into the organic phase followed by centrifugation for 10 minutes at 1000×g to separate the organic and aqueous phases. The lower organic phase containing total lipids was removed and placed in a new tube. The organic solution was evaporated under N2. […]

female obese Zucker rats = test: Experiment A: serum lipids, glucose, non-esterified fatty acids and weight gain in obese female Zucker rats after seven days; type: in vivo, rat; conditions: 120 mg/kg
Method: Dosing vehicle, Compound A (86 mg/kg of body weight) or troglitazone (120 mg/kg of body weight) was administered to eight week old female obese Zucker rats daily for seven days in the morning by oral gavage in 1.5% carboxymethylcellulose/0.2% Tween-20. Troglitazone was obtained commercially. Finely crushed tablets were suspended in vehicle for dosing. Orbital blood samples were obtained following a six-hour fast prior to the initial dose and also following the seventh dose.
Blood serum was assayed for total cholesterol and triglycerides (FIG. 5), lipoprotein cholesterol profiles (FIG. 6), VLDL plus LDL cholesterol combined (also referred to as apo B containing lipoprotein cholesterol or non-HDL cholesterol), HDL cholesterol, and the ratio of HDL cholesterol to that of VLDL plus LDL cholesterol (FIG. 7), serum glucose, and non-esterified fatty acids (FIG. 8), and percent weight gain (FIG. 9). […] In particular, Compound A caused a marked elevation in HDL cholesterol after one week of treatment. Using the serum total cholesterol values (FIG. 5A) and the lipoprotein cholesterol distribution (FIG. 6), the amount of cholesterol associated with non-HDL (i.e., VLDL plus LDL) and HDL were determined (FIG. 7). […] In contrast, troglitazone reduced non-HDL and HDL cholesterol by 67% and 4%, respectively.

SMILES: CC(C)(CCCCOCCCCC(C)(C)OP(=O)(OCc1ccccc1)OCc1ccccc1)OP(=O)(OCc1ccccc1)OCc1ccccc1 [Compound C, phosphoric acid dibenzyl ester 5-(5-(bis-benzyloxy-phosphoryloxy)-5-methyl-hexyloxy)-1,1-dimethyl-pentyl ester]
- HDL-Cholesterol (% change) [1]: +11.6 % change
- LDL-Cholesterol (% change) [1]: −4.0 % change
- Triglyceride (% change) [1]: +32.6 % change

SMILES: CC(C)(CCCOCCCC(C)(C)OP(=O)(O)O)OP(=O)([O-])[O-].[Na+].[Na+] [Compound D, phosphoric acid mono-(1,1-dimethyl-4-(4-methyl-4-phosphonooxy-pentyloxy)-butyl)ester sodium salt]
- HDL-Cholesterol (% change) [1]: +13.3 % change
- LDL-Cholesterol (% change) [1]: −17.0 % change
- Triglyceride (% change) [1]: +28.0 % change

SMILES: CC(C)(CCCCOCCCCC(C)(C)OP(=O)(O)O)OP(=O)([O-])[O-].[Na+].[Na+] [Compound B, phosphoric acid mono-(1,1-dimethyl-5-(5-methyl-5-phosphonooxy-hexyloxy)-pentyl)ester sodium salt]
- Body Weight Gain (% of Pretreatment) ([2]; Experiment B, 100 mg/kg/day): +12.0 % of Pretreatment
- HDL-Cholesterol (% of Pretreatment) ([2]; Experiment B, 100 mg/kg/day): −23.3 % of Pretreatment
- Non HDL-Cholesterol (% of Pretreatment) ([2]; Experiment B, 100 mg/kg/day): +257.1 % of Pretreatment
- Triglycerides (% of Pretreatment) ([2]; Experiment B, 100 mg/kg/day): +24.6 % of Pretreatment
- HDL-Cholesterol (% change) [1]: +40.7 % change
- LDL-Cholesterol (% change) [1]: +23.2 % change
- Triglyceride (% change) [1]: −31.1 % change

SMILES: CC(C)(O)CCCCOCCCCC(C)(C)O [Compound F, 6-(5-hydroxy-5-methyl-hexyloxy)-2-methyl-hexan-2-ol]
- rates of saponified fatty acid synthesis (primary rat hepatocytes): reduced the rates of saponified fatty acid synthesis

SMILES: Cc1c(C)c2c(c(C)c1O)CCC(C)(COc1ccc(CC3SC(=O)NC3=O)cc1)O2 (stereo not drawn) [troglitazone, reference compound]
- Body Weight Gain (% of Pretreatment) ([2]; Experiment B, 120 mg/kg/day): +21.7 % of Pretreatment
- HDL-Cholesterol (% of Pretreatment) ([2]; Experiment B, 120 mg/kg/day): +44.2 % of Pretreatment
- Non HDL-Cholesterol (% of Pretreatment) ([2]; Experiment B, 120 mg/kg/day): −44.0 % of Pretreatment
- Triglycerides (% of Pretreatment) ([2]; Experiment B, 120 mg/kg/day): −76.6 % of Pretreatment
- Body Weight Gain (% of Pretreatment) ([2]; Experiment C, 12 mg/kg/day): +20.2 % of Pretreatment
- HDL-Cholesterol (% of Pretreatment) ([2]; Experiment C, 12 mg/kg/day): +1.9 % of Pretreatment
- Non HDL-Cholesterol (% of Pretreatment) ([2]; Experiment C, 12 mg/kg/day): −10.6 % of Pretreatment
- Triglycerides (% of Pretreatment) ([2]; Experiment C, 12 mg/kg/day): +10.7 % of Pretreatment
- Body Weight Gain (% of Pretreatment) ([2]; Experiment C, 40 mg/kg/day): +21.2 % of Pretreatment
- HDL-Cholesterol (% of Pretreatment) ([2]; Experiment C, 40 mg/kg/day): +36.1 % of Pretreatment
- Non HDL-Cholesterol (% of Pretreatment) ([2]; Experiment C, 40 mg/kg/day): −50.5 % of Pretreatment
- Triglycerides (% of Pretreatment) ([2]; Experiment C, 40 mg/kg/day): −59.6 % of Pretreatment
- HDL increase ([2]; Experiment C, 120 mg/kg dose): 122%
- Body Weight Gain (% of Pretreatment) ([2]; Experiment C, 120 mg/kg/day): +25.5 % of Pretreatment
- HDL-Cholesterol (% of Pretreatment) ([2]; Experiment C, 120 mg/kg/day): +122.4 % of Pretreatment
- Non HDL-Cholesterol (% of Pretreatment) ([2]; Experiment C, 120 mg/kg/day): −67.5 % of Pretreatment
- Triglycerides (% of Pretreatment) ([2]; Experiment C, 120 mg/kg/day): −79.2 % of Pretreatment
- percent liver to body weight ([2]; Experiment C, all doses, after two weeks, FIG. 16): reduced at all doses
- Body Weight Gain (% of Pretreatment) ([2]; Experiment D, 120 mg/kg/day): +13.8 % of Pretreatment
- HDL-Cholesterol (% of Pretreatment) ([2]; Experiment D, 120 mg/kg/day): +41.3 % of Pretreatment
- Non HDL-Cholesterol (% of Pretreatment) ([2]; Experiment D, 120 mg/kg/day): −51.0 % of Pretreatment
- Triglycerides (% of Pretreatment) ([2]; Experiment D, 120 mg/kg/day): −65.9 % of Pretreatment
- Body Weight Gain (% of Pretreatment) ([2]; Experiment E, 120 mg/kg/day): +14.4 % of Pretreatment
- HDL-Cholesterol (% of Pretreatment) ([2]; Experiment E, 120 mg/kg/day): +47.9 % of Pretreatment
- Non HDL-Cholesterol (% of Pretreatment) ([2]; Experiment E, 120 mg/kg/day): −67.4 % of Pretreatment
- Triglycerides (% of Pretreatment) ([2]; Experiment E, 120 mg/kg/day): −69.4 % of Pretreatment
- reduction of HDL cholesterol (female obese Zucker rats; one week): 4%
- reduction of non-HDL cholesterol (female obese Zucker rats; one week): 67%
- reduction of non-esterified fatty acids (female obese Zucker rats; one week): 65%
- increase in weight gain (female obese Zucker rats; seven days, vehicle 6.6%): +11.6%

SMILES: CC(C)(CCCOCCCC(C)(C)OP(=O)(OCc1ccccc1)OCc1ccccc1)OP(=O)(OCc1ccccc1)OCc1ccccc1 [Compound E, phosphoric acid dibenzyl ester 4-(4-(bis-benzyloxy-phosphoryloxy)-4-methyl-pentyloxy)-1,1-dimethyl-butyl ester]
- HDL-Cholesterol (% change) [1]: +49.1 % change
- LDL-Cholesterol (% change) [1]: −41.0 % change
- Triglyceride (% change) [1]: −30.5 % change
- rates of saponified fatty acid synthesis (primary rat hepatocytes): reduced the rates of saponified fatty acid synthesis
